Seven molecules from patent publication US12252524B2, “GIP/GLP1 co-agonist compounds” (Eli Lilly and Company, priority 2018, dated 2025) can be followed below.

Each structure is given as a SMILES string. Numbered stars: 1 amine (or outer) side, 2 acyl side, 3 side chain; on linkers, the order of the positions; unused ones are H or OH. Square brackets hold non-standard residues; d marks the D form. Side chains are listed from the residue outwards. Peptide text beside a SMILES is read from it. * marks the point of attachment. C18 diacid = O=C(O)CCCCCCCCCCCCCCCCC(=O)*; αMePhe(2-F) = C[C@](N)(Cc1ccccc1F)C(=O)O; γGlu = O=C(O)[C@H](CCC(=O)[*:2])N[*:1]; αMeL = CC(C)C[C@](C)(N)C(=O)O; Orn = NCCC[C@H](N)C(=O)O; AEEA = NCCOCCOCC(=O)O; Aib = CC(C)(N)C(=O)O

By EC50 is commonly meant the concentration giving half of the maximal effect.

In assay [1] the target is T1, gastric inhibitory peptide receptor (GIPR) (Homo sapiens, UniProt P48546).
T1 sequence (P48546 22-466): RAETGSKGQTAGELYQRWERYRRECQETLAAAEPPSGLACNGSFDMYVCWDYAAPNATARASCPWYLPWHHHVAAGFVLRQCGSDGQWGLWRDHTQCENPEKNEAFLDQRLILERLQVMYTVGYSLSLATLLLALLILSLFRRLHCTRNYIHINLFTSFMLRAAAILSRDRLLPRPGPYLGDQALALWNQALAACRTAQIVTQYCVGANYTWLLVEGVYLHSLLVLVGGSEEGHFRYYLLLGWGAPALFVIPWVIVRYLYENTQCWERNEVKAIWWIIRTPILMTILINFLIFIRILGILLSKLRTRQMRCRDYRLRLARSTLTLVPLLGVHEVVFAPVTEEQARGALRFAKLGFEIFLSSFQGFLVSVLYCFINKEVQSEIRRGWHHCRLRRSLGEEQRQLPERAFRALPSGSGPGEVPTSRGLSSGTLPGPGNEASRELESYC
Nature of the assay: cAMP pharmacological functional assay in presence of casein, hGIPR. The settings on record: HEK293 cells expressing hGIPR, 0.1% Casein, geometric mean; read-out: hGIPR cAMP Rel EC50 nM (SEM, n). Format: cell-based.

The target in assay [2] is human GLP-1 receptor (GLP-1R) (Homo sapiens, UniProt P43220). Nature of the assay: cAMP pharmacological functional assay in presence of casein, hGLP-1R. Format: cell-based. The settings on record: HEK293 cells expressing hGLP-1R, 0.1% Casein, geometric mean; read-out: hGLP1R cAMP Rel EC50 nM (SEM, n).
Chain of human GLP-1 receptor (GLP-1R) (P43220 24-463): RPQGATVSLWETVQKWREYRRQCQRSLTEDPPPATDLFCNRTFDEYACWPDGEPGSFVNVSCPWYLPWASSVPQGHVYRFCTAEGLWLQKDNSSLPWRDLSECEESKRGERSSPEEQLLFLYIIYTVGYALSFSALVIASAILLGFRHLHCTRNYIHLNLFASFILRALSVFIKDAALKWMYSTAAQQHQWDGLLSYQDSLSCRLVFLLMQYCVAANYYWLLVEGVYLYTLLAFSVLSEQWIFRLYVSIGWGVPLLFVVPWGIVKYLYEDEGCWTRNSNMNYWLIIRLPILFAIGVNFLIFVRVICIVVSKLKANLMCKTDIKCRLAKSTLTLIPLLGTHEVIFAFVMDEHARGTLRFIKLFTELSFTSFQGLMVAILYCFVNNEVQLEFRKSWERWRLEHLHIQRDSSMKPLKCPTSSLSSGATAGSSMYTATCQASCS

`CC[C@H](C)[C@H](NC(=O)[C@H](CC(C)C)NC(=O)[C@H](Cc1ccc(O)cc1)NC(=O)[C@H](CCC(=O)O)NC(=O)[C@@H](NC(=O)[C@H](Cc1ccccc1)NC(=O)[C@H](C)NC(=O)[C@@H]1CCCN1C(=O)[C@H](CCC(N)=O)NC(=O)[C@H](C)NC(=O)[C@H](CCCCNC(=O)COCCOCCNC(=O)COCCOCCNC(=O)CC[C@H](NC(=O)CCCCCCCCCCCCCCCCC(=O)O)C(=O)O)NC(=O)[C@H](CCCCN)NC(=O)[C@H](CC(=O)O)NC(=O)[C@H](CC(C)C)NC(=O)[C@H](CC(C)C)NC(=O)[C@@H](NC(=O)[C@H](CO)NC(=O)[C@H](Cc1ccc(O)cc1)NC(=O)[C@H](CC(=O)O)NC(=O)[C@H](CO)NC(=O)[C@@H](NC(=O)[C@H](Cc1ccccc1)NC(=O)[C@@H](NC(=O)CNC(=O)[C@H](CCC(=O)O)NC(=O)C(C)(C)NC(=O)[C@@H](N)Cc1ccc(O)cc1)[C@@H](C)O)[C@@H](C)O)[C@@H](C)CC)[C@@H](C)CC)C(=O)N[C@@H](CCC(=O)O)C(=O)NCC(=O)NCC(N)=O` [Example 275] (H-Y[Aib]EGTFTSDYSILLDKK([AEEA-AEEA-γGlu-C18 diacid])AQPAFIEYLIEGG-NH2): the values for the EC50 in assay [1] and in assay [2] were above 30 nM and 14 nM, respectively.

Turning to `CC[C@H](C)[C@H](NC(=O)[C@H](CC(C)C)NC(=O)[C@H](Cc1ccc(O)cc1)NC(=O)[C@@H](CCC(=O)O)NC(=O)[C@@H](NC(=O)[C@H](Cc1ccccc1)NC(=O)[C@H](CCC(=O)O)NC(=O)C(C)(C)NC(=O)[C@H](CCC(N)=O)NC(=O)[C@H](C)NC(=O)[C@H](CCCCN)NC(=O)[C@H](CCC(=O)O)NC(=O)[C@H](CC(=O)O)NC(=O)[C@H](CC(C)C)NC(=O)[C@](C)(CC(C)C)NC(=O)[C@@H](NC(=O)[C@H](CO)NC(=O)[C@H](Cc1ccc(O)cc1)NC(=O)[C@H](CC(=O)O)NC(=O)[C@H](CO)NC(=O)[C@@H](NC(=O)[C@](C)(Cc1ccccc1F)NC(=O)[C@@H](NC(=O)CNC(=O)[C@H](CCC(=O)O)NC(=O)C(C)(C)NC(=O)[C@@H](N)Cc1ccc(O)cc1)[C@@H](C)O)[C@@H](C)O)[C@@H](C)CC)[C@@H](C)CC)C(=O)N[C@@H](CCC(=O)O)C(=O)NCC(=O)NCC(=O)N1CCC[C@H]1C(=O)N[C@@H](CO)C(=O)N[C@@H](CO)C(=O)NCC(=O)N[C@@H](C)C(=O)N1CCC[C@H]1C(=O)N1CCC[C@H]1C(=O)N1CCC[C@H]1C(=O)N[C@@H](CO)C(N)=O` [Example 276] (H-Y[Aib]EGT[αMePhe(2-F)]TSDYSI[αMeL]LDEKAQ[Aib]EFI[dE]YLIEGGPSSGAPPPS-NH2), the EC50 in assay [1] is 0.0757 nM; in assay [2], 0.108 nM.

On to `CC[C@H](C)[C@H](NC(=O)[C@H](CC(C)C)NC(=O)[C@H](Cc1ccc(O)cc1)NC(=O)[C@@H](CCC(=O)O)NC(=O)[C@@H](NC(=O)[C@H](Cc1ccccc1)NC(=O)[C@H](CCC(=O)O)NC(=O)C(C)(C)NC(=O)[C@H](CCC(N)=O)NC(=O)[C@H](C)NC(=O)[C@H](CCC(N)=O)NC(=O)[C@H](CCC(=O)O)NC(=O)[C@H](CC(=O)O)NC(=O)[C@H](CC(C)C)NC(=O)[C@](C)(CC(C)C)NC(=O)[C@@H](NC(=O)[C@H](CO)NC(=O)[C@H](Cc1ccc(O)cc1)NC(=O)[C@H](CC(=O)O)NC(=O)[C@H](CO)NC(=O)[C@@H](NC(=O)[C@](C)(Cc1ccccc1F)NC(=O)[C@@H](NC(=O)CNC(=O)[C@H](CCC(=O)O)NC(=O)C(C)(C)NC(=O)[C@@H](N)Cc1ccc(O)cc1)[C@@H](C)O)[C@@H](C)O)[C@@H](C)CC)[C@@H](C)CC)C(=O)N[C@@H](CCC(=O)O)C(=O)NCC(=O)NCC(=O)N1CCC[C@H]1C(=O)N[C@@H](CO)C(=O)N[C@@H](CO)C(=O)NCC(=O)N[C@@H](C)C(=O)N1CCC[C@H]1C(=O)N1CCC[C@H]1C(=O)N1CCC[C@H]1C(=O)N[C@@H](CO)C(N)=O` [Example 277] (H-Y[Aib]EGT[αMePhe(2-F)]TSDYSI[αMeL]LDEQAQ[Aib]EFI[dE]YLIEGGPSSGAPPPS-NH2; N-terminus assumed), for which the EC50 came out at 0.0554 nM in assay [1] and 0.133 nM in assay [2].

For the molecule `CC[C@H](C)[C@H](NC(=O)[C@H](CC(C)C)NC(=O)[C@H](Cc1ccc(O)cc1)NC(=O)[C@@H](CCC(=O)O)NC(=O)[C@@H](NC(=O)[C@H](Cc1ccccc1)NC(=O)[C@H](CCC(=O)O)NC(=O)C(C)(C)NC(=O)[C@H](CCC(N)=O)NC(=O)[C@H](C)NC(=O)[C@H](CCCCN)NC(=O)[C@H](CCC(=O)O)NC(=O)[C@H](CC(=O)O)NC(=O)[C@H](CC(C)C)NC(=O)[C@](C)(CC(C)C)NC(=O)[C@@H](NC(=O)[C@H](CO)NC(=O)[C@H](Cc1ccc(O)cc1)NC(=O)[C@H](CC(=O)O)NC(=O)[C@H](CO)NC(=O)[C@@H](NC(=O)[C@](C)(Cc1ccccc1F)NC(=O)[C@@H](NC(=O)CNC(=O)[C@H](CCC(=O)O)NC(=O)C(C)(C)NC(=O)[C@@H](N)Cc1ccc(O)cc1)[C@@H](C)O)[C@@H](C)O)[C@@H](C)CC)[C@@H](C)CC)C(=O)N[C@@H](CCC(=O)O)C(=O)NCC(=O)NCC(=O)N1CCC[C@H]1C(=O)N[C@@H](CO)C(=O)N[C@@H](CO)C(=O)NCC(=O)N[C@@H](C)C(=O)N1CCC[C@H]1C(=O)N1CCC[C@H]1C(=O)N1CCC[C@H]1C(=O)N[C@@H](CO)C(=O)N[C@@H](CS)C(N)=O` [Example 278] (H-Y[Aib]EGT[αMePhe(2-F)]TSDYSI[αMeL]LDEKAQ[Aib]EFI[dE]YLIEGGPSSGAPPPSC-NH2; N-terminus assumed), the results for the concentration for a half-maximal effect (EC50) in assay [1] and in assay [2] were 0.293 nM and 0.123 nM, respectively.

Consider `CC[C@H](C)[C@H](NC(=O)[C@H](CC(C)C)NC(=O)[C@H](Cc1ccc(O)cc1)NC(=O)[C@@H](CCC(=O)O)NC(=O)[C@@H](NC(=O)[C@H](Cc1ccccc1)NC(=O)[C@H](CCC(=O)O)NC(=O)C(C)(C)NC(=O)[C@H](CCC(N)=O)NC(=O)[C@H](C)NC(=O)[C@H](CCC(N)=O)NC(=O)[C@H](CCC(=O)O)NC(=O)[C@H](CC(=O)O)NC(=O)[C@H](CC(C)C)NC(=O)[C@](C)(CC(C)C)NC(=O)[C@@H](NC(=O)[C@H](CO)NC(=O)[C@H](Cc1ccc(O)cc1)NC(=O)[C@H](CC(=O)O)NC(=O)[C@H](CO)NC(=O)[C@@H](NC(=O)[C@](C)(Cc1ccccc1F)NC(=O)[C@@H](NC(=O)CNC(=O)[C@H](CCC(=O)O)NC(=O)C(C)(C)NC(=O)[C@@H](N)Cc1ccc(O)cc1)[C@@H](C)O)[C@@H](C)O)[C@@H](C)CC)[C@@H](C)CC)C(=O)N[C@@H](CCC(=O)O)C(=O)NCC(=O)NCC(=O)N1CCC[C@H]1C(=O)N[C@@H](CO)C(=O)N[C@@H](CO)C(=O)NCC(=O)N[C@@H](C)C(=O)N1CCC[C@H]1C(=O)N1CCC[C@H]1C(=O)N1CCC[C@H]1C(=O)N[C@@H](CO)C(=O)N[C@@H](CS)C(N)=O` [Example 279] (H-Y[Aib]EGT[αMePhe(2-F)]TSDYSI[αMeL]LDEQAQ[Aib]EFI[dE]YLIEGGPSSGAPPPSC-NH2), for which the EC50 in assay [1] worked out at 0.564 nM; in assay [2] it was 0.11 nM.

For `CC[C@H](C)[C@H](NC(=O)[C@H](CC(C)C)NC(=O)[C@H](Cc1ccc(O)cc1)NC(=O)[C@@H](CCC(=O)O)NC(=O)[C@@H](NC(=O)[C@H](Cc1ccccc1)NC(=O)[C@H](CCC(=O)O)NC(=O)C(C)(C)NC(=O)[C@H](CCC(N)=O)NC(=O)[C@H](C)NC(=O)[C@H](CCCCN)NC(=O)[C@H](CCCN)NC(=O)[C@H](CC(=O)O)NC(=O)[C@H](CC(C)C)NC(=O)[C@](C)(CC(C)C)NC(=O)[C@@H](NC(=O)[C@H](CO)NC(=O)[C@H](Cc1ccc(O)cc1)NC(=O)[C@H](CC(=O)O)NC(=O)[C@H](CO)NC(=O)[C@@H](NC(=O)[C@](C)(Cc1ccccc1F)NC(=O)[C@@H](NC(=O)CNC(=O)[C@H](CCC(=O)O)NC(=O)C(C)(C)NC(=O)[C@@H](N)Cc1ccc(O)cc1)[C@@H](C)O)[C@@H](C)O)[C@@H](C)CC)[C@@H](C)CC)C(=O)N[C@@H](CCC(=O)O)C(=O)NCC(=O)NCC(=O)N1CCC[C@H]1C(=O)N[C@@H](CO)C(=O)N[C@@H](CO)C(=O)NCC(=O)N[C@@H](C)C(=O)N1CCC[C@H]1C(=O)N1CCC[C@H]1C(=O)N1CCC[C@H]1C(=O)N[C@@H](CO)C(N)=O` [Example 280] (H-Y[Aib]EGT[αMePhe(2-F)]TSDYSI[αMeL]LD[Orn]KAQ[Aib]EFI[dE]YLIEGGPSSGAPPPS-NH2), the EC50 in assay [1] was determined as 0.204 nM; in assay [2], 0.0767 nM.

Regarding `CC[C@H](C)[C@H](NC(=O)[C@H](CC(C)C)NC(=O)[C@H](Cc1ccc(O)cc1)NC(=O)[C@@H](CCC(=O)O)NC(=O)[C@@H](NC(=O)[C@H](Cc1ccccc1)NC(=O)[C@H](CCC(=O)O)NC(=O)C(C)(C)NC(=O)[C@H](CCC(N)=O)NC(=O)[C@H](C)NC(=O)[C@H](CCC(N)=O)NC(=O)[C@H](CCCN)NC(=O)[C@H](CC(=O)O)NC(=O)[C@H](CC(C)C)NC(=O)[C@](C)(CC(C)C)NC(=O)[C@@H](NC(=O)[C@H](CO)NC(=O)[C@H](Cc1ccc(O)cc1)NC(=O)[C@H](CC(=O)O)NC(=O)[C@H](CO)NC(=O)[C@@H](NC(=O)[C@](C)(Cc1ccccc1F)NC(=O)[C@@H](NC(=O)CNC(=O)[C@H](CCC(=O)O)NC(=O)C(C)(C)NC(=O)[C@@H](N)Cc1ccc(O)cc1)[C@@H](C)O)[C@@H](C)O)[C@@H](C)CC)[C@@H](C)CC)C(=O)N[C@@H](CCC(=O)O)C(=O)NCC(=O)NCC(=O)N1CCC[C@H]1C(=O)N[C@@H](CO)C(=O)N[C@@H](CO)C(=O)NCC(=O)N[C@@H](C)C(=O)N1CCC[C@H]1C(=O)N1CCC[C@H]1C(=O)N1CCC[C@H]1C(=O)N[C@@H](CO)C(N)=O` [Example 281] (H-Y[Aib]EGT[αMePhe(2-F)]TSDYSI[αMeL]LD[Orn]QAQ[Aib]EFI[dE]YLIEGGPSSGAPPPS-NH2), the EC50 in assay [1] is 0.166 nM; in assay [2] it was 0.16 nM.
